Measurements as given in US20250345468A1, “COMBINATION TREATMENT OF SMALL-CELL LUNG CANCER” (ITM ISOTOPE TECHNOLOGIES MUNICH SE, priority 2022, published 2025).

How the values were obtained:
[1] = tested on: H69 SCLC cells; assay: Tumor growth delay and survival, H69 xenograft mouse model; settings: PARP inhibitor alone
Experimental: H446 (FIG. 5) or H69 (FIG. 6) SCLC cells were subcutaneously inoculated in athymic nude mice to establish xenograft mouse models (injection of about 2 mio. cells in 200 μl Medium/Matrigel (1:1). Tumor volume and body weight were monitored daily during the study period. The differences of the initial tumor volume and the body weight of the mice of each treatment arm were negligible. The animals were treated with either PARP inhibitor alone or ^177Lu-DOTATOC alone, or with a combination of PARP inhibitor and of ^177Lu-DOTATOC. The onset of the treatment was at day 19 (H446 model) or at day 11 (H69 model) (administration of the PARP inhibitor), respectively. These groups were compared to an untreated control group. While the radiopharmaceutical was administered to the animals only once, the animals were treated with PARP inhibitor in two cycles of five days each (10 mg/kg in 200 μl PBS i.p.) at days 19 to 23 and 26 to 30 or at days 11 to 15 and 18 to 22, respectively. The treatment was interrupted for two days after the end of the first PARP inhibitor treatment cycle. ^177Lu-DOTATOC (40 MBq, 223 MBq/nmol) was administered in the middle of the first PARP inhibitor treatment cycle (at day 21 or at day 13, respectively). Study endpoint was a tumor size exceeding 15 mm in each dimension.

[2] = tested on: H446 cells; assay: Cell viability (IC50) assay in H446 SCLC cells; type: cell-based, human
Experimental: FIG. 1A: H446 and H69 cells treated with increasing concentrations of Rucaparib. […] (IC50 values: ^177Lu-DOTA-TOC: 8.9 kBq, ^177Lu-DOTATOC and 5 μM Rucaparib: 0.9 kBq, ^177LU-DOTATOC and 20 μM Rucaparib; 0.4 kBq)
(§1) FIG. 1A). […] At such concentrations, neither Rucaparib nor ^177Lu-DOTATOC, respectively, alone have any major impact on cell viability. The activity required for ^177Lu-DOTATOC to reduce cell viability to 50% by H446 cells in the combination treatment was reduced by a factor of 10 (5 μM Rucaparib) to 22 (20 μM Rucaparib).
(§2) Further evidence for such a synergistic effect was collected by analogous viability assays employing other PARP inhibitors, such as Olaparib and Talazoparib, in combination with ^177Lu-DOTATOC. The applied PARP inhibitor concentrations for combination therapy was adjusted depending on their individual cytotoxicity. […] That finding was proven in all cell lines.

[3] = tested on: H69 cells; assay: Cell viability (IC50) assay in H69 SCLC cells; type: cell-based, human
Source text: FIG. 3A: Determination of the IC50 values of Rucaparib in the H446 and H69 cell lines. FIG. 3B: H446, FIG. 3C: H69 cell lines. Cell viability was studied upon combined cell treatment with Olaparib and ^177Lu-DOTA-TOC vs. ^177Lu-DOTA-TOC alone.
as §1, §2

[4] = tested on: PARP; settings: cited from earlier work
[5] = tested on: SSTR2; assay: in vivo; design: species or system athymic nude mice; settings: athymic nude, mouse, 10 MBq
Experimental: (§3) H446 and H69 as SSTR2 expressing SCLC cell lines were subcutaneously inoculated into mice to establish a mouse xenograft model. The results were obtained from PET scans. […] By control experiments, the tumors were blocked with non-radioactive (non-labelled) DOTATOC (octreotide) for comparative reasons (“w/Block”).
(§4) Tumor accumulation of ^68Ga-DOTATOC (10 MBq) was evaluated in SCLC xenograft mouse model by subcutaneous inoculation of 2-3 mio SSTR2 expressing H446 and H69 cells, respectively, into athymic nude mice. The results (obtained from PET scans) shown in FIG. 8 reveal a visible uptake of ^68Ga-DOTATOC in the tumor after 4 hours p.i.

[6] = tested on: SSTR2 expressing H69 cells; assay: in vivo; design: species or system athymic nude mice; settings: mouse
Experimental: as §3, §4

[7] = tested on: SSTR2; assay: in vivo; design: species or system athymic nude mice; settings: athymic nude, mouse, 10 MBq; remark: listed apart in the source
Experimental: as §3, §4

Question: With `O=C(c1cc(Cc2n[nH]c(=O)c3ccccc23)ccc1F)N1CCN(C(=O)C2CC2)CC1` [Olaparib] as the compound, how does the “Anti-cancer effect of single therapy” value [1] read?
Answer: did not result in major anti-cancer effects

Question: With `CNCc1ccc(-c2[nH]c3cc(F)cc4c3c2CCNC4=O)cc1` [Rucaparib] as the compound, how does the “Anti-cancer effect of single therapy” value [1] read?
Answer: did not result in major anti-cancer effects

Question: What about the Cell viability ([2]; 20 μM Rucaparib alone) of the same compound?
Answer: slightly reduced

Question: And the IC50 ([2]; Homo sapiens, NCI-H446, Rucaparib alone)?
Answer: 32 µM

Question: And the Cell viability ([3]; 20 μM Rucaparib alone)?
Answer: slightly reduced

Question: And the IC50 ([3]; Homo sapiens, NCI-H69, Rucaparib alone)?
Answer: 36 µM

Question: With `Cn1ncnc1[C@H]1c2n[nH]c(=O)c3cc(F)cc(c23)N[C@@H]1c1ccc(F)cc1` [Talazoparib] as the compound, how does the “Potency relative to olaparib” value [4] read?
Answer: about 100 times

Question: What does the source list for `C[C@@H](O)[C@@H]1NC(=O)[C@H](CCCCN)NC(=O)[C@@H](Cc2c[nH]c3ccccc23)NC(=O)[C@H](Cc2ccc(O)cc2)NC(=O)[C@@H](NC(=O)[C@@H](Cc2ccccc2)NC(=O)CN2CCN(CC(=O)O)CCN(CC(=O)O)CCN(CC(=O)O)CC2)CSSC[C@@H](C(=O)N[C@H](CO)[C@@H](C)O)NC1=O` [^68Ga-DOTATOC, ^68Ga-DOTA-D-Phe-cyclo(Cys-Tyr-D-Trp-Lys-Thr-Cys)Thr(ol), metal not drawn]?
Answer: tissue uptake at 4 h [5]: 1 to 3 %ID/g; Uptake in H69 cells relative to H446 cells [6]: ~2 fold; tissue uptake at 4 h [7]: 1 to 3 %ID/g
